Test results from patent publication US20250122174A1 (Shenzhen Yuanli Shenwan Innovative Medicine Co., Ltd., priority 2022, published 2025).
Counter-ions that a name gives are not always drawn.

Target: HPK1 (Homo sapiens (Human), UniProt Q92918)
Experiment: HPK1 Inhibition Assay (ADP-Glo kinase assay)
Type: biochemical
Details: ATP 10 μM
How it was run: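 ADP-Glo luminescence read-out after 1 h room-temperature kinase reaction with 10 μM ATP and 0.1 μg/ml MBP. Recombinant human HPK1 at 7.5 ng/μl; buffer 40 mM Tris pH 7.5, 20 mM MgCl2. Compounds serially diluted 5-fold over 10 points from 10 mM DMSO stock.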

Chain of HPK1 (Q92918 1-346 limits assumed): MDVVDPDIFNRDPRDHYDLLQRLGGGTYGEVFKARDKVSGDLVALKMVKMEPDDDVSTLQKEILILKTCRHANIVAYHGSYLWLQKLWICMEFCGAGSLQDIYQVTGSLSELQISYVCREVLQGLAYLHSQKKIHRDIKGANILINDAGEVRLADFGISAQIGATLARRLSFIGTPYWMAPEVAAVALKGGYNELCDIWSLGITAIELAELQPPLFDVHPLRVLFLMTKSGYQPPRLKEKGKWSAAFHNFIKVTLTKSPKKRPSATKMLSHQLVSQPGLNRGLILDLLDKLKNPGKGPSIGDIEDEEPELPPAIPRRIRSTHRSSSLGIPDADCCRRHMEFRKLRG

| SMILES | IC50 [nM] |
| --- | --- |
| CC(C)n1ncc2c(N3C[C@H](C)[C@@H](N)C3)c(NC(=O)c3ccc(=O)n(-c4c(F)cccc4F)n3)ccc21 [Example 209, N-(4-((3R,4S)-3-amino-4-methylpyrrolidin-1-yl)-1-isopropyl-1H-indazol-5-yl)-1-(2,6-difluorophenyl)-6-oxo-1,6-dihydropyridazine-3-carboxamide] | < 100 |
| N[C@H]1CN(c2c(NC(=O)c3ccc(=O)n(-c4c(F)cccc4F)n3)ccc3c2cnn3[C@@H]2CCOC2)CC12CC2 [Example 250, N-(4-((R)-7-amino-5-azaspiro[2.4]heptan-5-yl)-1-((R)-tetrahydrofuran-3-yl)-1H-indazol-5-yl)-1-(2,6-difluorophenyl)-6-oxo-1,6-dihydropyridazine-3-carboxamide] | < 100 |
| CC(C)c1nc2c(N3CC(N)C(O)C3)c(NC(=O)c3ccc(=O)n(-c4c(F)cccc4F)n3)ccc2n1C (centres unmarked) [Example 142, N-(4-(3-amino-4-hydroxypyrrolidin-1-yl)-2-isopropyl-1-methyl-1H-benzo[d]imidazol-5-yl)-1-(2,6-difluorophenyl)-6-oxo-1,6-dihydropyridazine-3-carboxamide] | < 100 |
| Cc1nc2c(N3CC[C@H](N)C3)c(NC(=O)c3ccnn(-c4c(Cl)cccc4Cl)c3=O)ccc2n1C [Example 49, N-{4-[(35)-3-aminopyrrolidin-1-yl]-1,2-dimethyl-1,3-benzodiazol-5-yl}-2-(2,6-dichlorophenyl)-3-oxopyridazine-4-carboxamide hydrochloride] | < 100 |
| Cc1nc2c(N3CCN(C)CC3)c(NC(=O)c3ccc(=O)n(-c4c(F)cccc4F)n3)ccc2n1C [Example 69, 1-(2,6-difluorophenyl)-N-(1,2-dimethyl-4-(4-methylpiperazin-1-yl)-1H-benzo[d]imidazol-5-yl)-6-oxo-1,6-dihydropyridazine-3-carboxamide] | 100 to 1000 |
| COc1cccc(F)c1-n1nccc(C(=O)Nc2ccc3c(nc(C(F)(F)F)n3C)c2N2CC[C@H](N)C2)c1=O [Example 41, (S)-N-(4-(3-aminopyrrolidin-1-yl)-1-methyl-2-(trifluoromethyl)-1H-benzo[d]imidazol-5-yl)-2-(2-fluoro-6-methoxyphenyl)-3-oxo-2,3-dihydropyridazine-4-carboxamide] | < 100 |
| COc1cccc(F)c1-c1cccc(C(=O)Nc2ccc3c(nc(C)n3C)c2N2CCC[C@H]2CN)[n+]1[O-] [Example 61, 2-((4-((S)-2-(aminomethyl)pyrrolidin-1-yl)-1,2-dimethyl-1H-benzo[d]imidazol-5-yl)carbamoyl)-6-(2-fluoro-6-methoxyphenyl)pyridine 1-oxide] | < 100 |
| COc1cccc(F)c1-n1cccc(C(=O)Nc2cc(F)c3nn(C)cc3c2N2C[C@H]3C[C@@H]2CN3)c1=O [Example 52, N-(4-((1R,4R)-2,5-diazabicyclo[2.2.1]heptan-2-yl)-7-fluoro-2-methyl-2H-indazol-5-yl)-1-(2-fluoro-6-methoxyphenyl)-2-oxo-1,2-dihydropyridine-3-carboxamide] | 100 to 1000 |
| Cc1nc2c(N(C)[C@@H]3CCCNC3)c(NC(=O)c3ccc(=O)n(-c4c(F)cccc4F)n3)ccc2n1C [Example 70, (R)-1-(2,6-difluorophenyl)-N-(1,2-dimethyl-4-(methyl(piperidin-3-yl)amino)-1H-benzo[d]imidazol-5-yl)-6-oxo-1,6-dihydropyridazine-3-carboxamide] | < 100 |
| N[C@@H]1CCN(c2c(NC(=O)c3ccc(=O)n(-c4c(F)cccc4F)n3)ccc3c2cnn3C2CCOCC2)C1 [Example 274, N-[4-[(3R)-3-aminopyrrolidin-1-yl]-1-tetrahydropyran-4-yl-indazol-5-yl]-1-(2,6-difluorophenyl)-6-oxo-pyridazine-3-carboxamid] | < 100 |
| Cc1cc(NC(=O)c2ccc(=O)n(-c3c(F)cccc3F)n2)c(N2CC[C@@H](N)C2)c2cn(C(C)C)nc12 [Example 226, (R)-N-(4-(3-aminopyrrolidin-1-yl)-2-isopropyl-7-methyl-2H-indazol-5-yl)-1-(2,6-difluorophenyl)-6-oxo-1,6-dihydropyridazine-3-carboxamide] | < 100 |
